Reference: patent US9718817B2, “Aryl and heteroaryl ether compounds as ROR gamma modulators” (Glenmark Pharmaceuticals S.A., priority 2014, dated 2017)

Biological target: T1, GST-tagged ROR gamma ligand binding domain (LBD) (Homo sapiens, UniProt P51449)
T1 construct: purchased Invitrogen
T1 sequence (P51449 269-508 limits assumed): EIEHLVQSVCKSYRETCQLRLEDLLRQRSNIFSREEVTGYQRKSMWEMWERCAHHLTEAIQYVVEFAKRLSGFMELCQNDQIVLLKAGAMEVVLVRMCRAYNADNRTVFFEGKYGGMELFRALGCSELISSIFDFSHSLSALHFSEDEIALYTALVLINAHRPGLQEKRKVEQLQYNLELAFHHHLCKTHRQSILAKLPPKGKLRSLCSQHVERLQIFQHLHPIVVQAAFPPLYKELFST
Assay: TR-FRET assay for ROR gamma (LanthaScreen co-activator peptide recruitment)
Format: biochemical
Conditions: for IC50: class symbols, from dose response curve; for inhibition at 1 µM: compound 1 μM; for inhibition at 1 µM / inhibition at 10 µM: TR-FRET ratio 520/495, percent of control; for inhibition at 10 µM: compound 10 μM
Description: The compounds described herein were screened for ROR gamma modulator activity using the TR-FRET assay by Lantha Screen as described in JBC 2011, 286, 26: 22707-10; and Drug Metabolism and Disposition 2009, 37, 10: 2069-78.
The assay is based on the principle that binding of the agonist to the ROR gamma causes a conformational change around helix 12 in the ligand binding domain, resulting in higher affinity for the co-activator peptide. ROR gamma being constitutively active, the Fluorescein-D22 co-activator peptide used in the assay is recruited in the absence of a ligand. Binding of the co-activator peptide, causes an increase in the TR-FRET signal while binding of an antagonist decreases the recruitment of the co-activator peptide, causing a decrease in the TR-FRET signal compared to control with no compound. The assay was performed using a two-step procedure, pre-incubation step with the compound followed by the detection step on addition of the anti-GST tagged terbium (Tb) and fluorescein tagged fluorophores as the acceptor.
Test compounds or reference compounds such as T0901317 (Calbiochem) were dissolved in dimethylsulfoxide (DMSO) to prepare 10.0 mM stock solutions and diluted to the desired concentration. The final concentration of DMSO in the reaction was 4% (v/v). The assay mixture was prepared by mixing 10 nM of the GST-tagged ROR gamma ligand binding domain (LBD) in the assay buffer containing 25 mM HEPES (pH 7.4), 100 mM NaCl, 5 mM DTT and 0.01% BSA with or without the desired concentration of the compound. The reaction was incubated at 22° C. for 1 hour. The pre-incubation step was terminated by addition of the detection mixture containing 300 nM Fluorescein-D22 co-activator peptide and 10 nM lantha screen Tb-anti GST antibody into the reaction mixture. After shaking for 5 minutes the reaction was further incubated for 1 hour at room temperature and read at 4° C. on an Infinite F500 reader as per the kit instructions (Invitrogen). The inhibition of test compound was calculated based on the TR-FRET ratio of 520/495. The activity was calculated as a percent of control reaction. IC50 values were calculated from dose response curve by nonlinear regression analysis using GraphPad Prism software.
Percentage inhibition at concentrations of 1.0 μM and 10.0 μM are given in the table along with IC50 (nM) details for selected examples.

Row | SMILES | IC50 | inhibition at 1 µM | inhibition at 10 µM
1 | CCS(=O)(=O)c1ccc(CC(=O)Nc2ccc(OC3(c4ccc(Cl)c(F)c4)CC3)cc2)cc1 [Example 50, N-{4-[1-(4-Chloro-3-fluoro-phenyl)-cyclopropoxy]-phenyl}-2-(4-ethanesulfonyl-phenyl)-acetamide] | < 50 nM | 81.3% | 87.9%
2 | CCS(=O)(=O)c1ccc(CC(=O)Nc2ccc(OC3(c4ccc(Cl)c(F)c4)CCOCC3)cc2)cc1 [Example 38, N-{4-[4-(4-Chloro-3-fluoro-phenyl)-tetrahydro-pyran-4-yloxy]-phenyl}-2-(4-ethanesulfonyl-phenyl)-acetamide] | < 50 nM | 85.8% | 87.8%
3 | CCn1c(C(C)(C)Oc2ccc(NC(=O)Cc3ccc(S(=O)(=O)CC)cc3)cc2F)nc2cc(Cl)ccc21 [Example 105, N-{4-[1-(5-Chloro-1-ethyl-1H-benzoimidazol-2-yl)-1-methyl-ethoxy]-3-fluoro-phenyl}-2-(4-ethanesulfonyl-phenyl)-acetamide] | < 50 nM | 83.6% | 84.6%
4 | CCS(=O)(=O)c1ccc(CC(=O)Nc2ccc(OC3(c4ccc(Cl)c(F)c4)CCC3)c(F)c2)cc1 [Example 119, N-{4-[1-(4-Chloro-3-fluorophenyl)-cyclobutoxy]-3-fluoro-phenyl}-2-(4-ethanesulfonyl-phenyl)-acetamide] | < 50 nM | 84.9% | 84.5%
5 | CCS(=O)(=O)c1ccc(CC(=O)Nc2ccc(OC(C)(C)c3ccc(Cl)cc3Cl)cc2)cc1 [Example 3, N-(4-{[2-(2,4-Dichlorophenyl)propan-2-yl]oxy}phenyl)-2-[4-(ethylsulfonyl)phenyl]acetamide] | < 50 nM | 81.3% | 83.4%
6 | CCS(=O)(=O)c1ccc(CC(=O)Nc2ccc(OC3(c4ccc(Cl)c(Cl)c4)COC3)cc2)cc1 [Example 46, N-{4-[3-(3,4-Dichlorophenyl)-oxetan-3-yloxy]-phenyl}-2-(4-ethanesulfonyl-phenyl)-acetamide] | > 100 nM | 68.1% | 86.3%
7 | CCn1c(C2(Oc3ccc(NC(=O)Cc4ccc(S(=O)(=O)CC)cc4)cc3)CC2)nc2ccc(Cl)cc21 [Example 23, N-(4-{[1-(6-Chloro-1-ethyl-1H-benzimidazol-2-yl)cyclopropyl]oxy}phenyl)-2-[4-(ethylsulfonyl)phenyl]acetamide] | > 100 nM | 69.6% | 86%
8 | CCn1c(C(C)(C)Oc2ccc(F)c(F)c2)nc2cc(NC(=O)Cc3ccc(S(=O)(=O)CC)cc3)ccc21 [Example 89, N-{2-[1-(3,4-Difluoro-phenoxy)-1-methyl-ethyl]-1-ethyl-1H-benzoimidazol-5-yl}-2-(4-ethanesulfonyl-phenyl)-acetamide] | < 50 nM | 86.5% | 95.5%
9 | CCS(=O)(=O)c1ccc(CC(=O)Nc2ccc(OC3(c4ccc(Cl)c(Cl)c4)CC3)nc2)cc1 [Example 53, N-{6-[1-(3,4-Dichloro-phenyl)-cyclopropoxy]-pyridin-3-yl}-2-(4-ethanesulfonyl-phenyl)-acetamide] | – | 52.6% | 76.5%
10 | CCn1c(C(C)(C)Oc2ccc(F)cc2F)nc2cc(NC(=O)Cc3ccc(S(=O)(=O)CC)cc3)ccc21 [Example 88, N-{2-[1-(2,4-Difluoro-phenoxy)-1-methyl-ethyl]-1-ethyl-1H-benzoimidazol-5-yl}-2-(4-ethanesulfonyl-phenyl)-acetamide] | < 50 nM | 86.2% | 96.1%
11 | CCS(=O)(=O)c1ccc(CC(=O)Nc2ccc(C#CC(C)(C)Oc3ccc(F)cc3Cl)cc2)cc1 [Example 67, N-{4-[3-(2-Chloro-4-fluoro-phenoxy)-3-methyl-but-1-yn-1-yl]-phenyl}-2-(4-ethanesulfonyl-phenyl)-acetamide] | – | 70.5% | 75.7%
12 | CCn1c(C(C)(C)Oc2ccc(NC(=O)Cc3ccc(S(=O)(=O)CC)cc3)cc2)nc2ccc(Cl)cc21 [Example 17, N-(4-{[2-(6-Chloro-1-ethyl-1H-benzimidazol-2-yl)propan-2-yl]oxy}phenyl)-2-[4-(ethylsulfonyl)phenyl]acetamide] | < 50 nM | 88.7% | 94.3%
13 | CCS(=O)(=O)c1ccc(CC(=O)Nc2ccc(OC(C)(C)c3ccc(F)cc3Cl)cc2)cc1 [Example 8, N-(4-{[2-(2-Chloro-4-fluorophenyl)propan-2-yl]oxy}phenyl)-2-[4-(ethylsulfonyl)phenyl]acetamide] | < 50 nM | 85% | 87.8%
14 | CCN(C(=O)C(C)(C)Oc1ccc(F)cc1F)c1ccc(NC(=O)Cc2ccc(S(=O)(=O)CC)cc2)cc1 [Example 132, 2-(2,4-Difluorophenoxy)-N-ethyl-N-(4-(2-(4-(ethylsulfonyl)phenyl)acetamido)phenyl)-2-methylpropanamide] | – | 52.9% | 60.9%
15 | CCS(=O)(=O)c1ccc(CC(=O)Nc2ccc(OC3(c4ccc(Cl)c(F)c4)CCCC3)c(F)c2)cc1 [Example 121, N-{4-[1-(4-Chloro-3-fluorophenyl)-cyclopentyloxy]-3-fluorophenyl}-2-(4-ethanesulfonyl-phenyl)-acetamide] | < 50 nM | 86.8% | 90.2%
16 | CCS(=O)(=O)c1ccc(CC(=O)Nc2ccc(OC(C)(C)Cn3c(C)cc4cc(F)ccc43)c(F)c2)cc1 [Example 108, 2-(4-Ethanesulfonyl-phenyl)-N-{3-fluoro-4-[2-(5-fluoro-2-methyl-indol-1-yl)-1,1-dimethyl-ethoxy]-phenyl}-acetamide] | – | 9.67% | 61.4%
17 | CCS(=O)(=O)c1ccc(CC(=O)Nc2ccc(OC(C)(C)c3cc(Cl)cc(Cl)c3)cc2)cc1 [Example 5, N-(4-{[2-(3,5-Dichlorophenyl)propan-2-yl]oxy}phenyl)-2-[4-(ethylsulfonyl)phenyl]acetamide] | – | 58.2% | 66.9%
18 | CCS(=O)(=O)c1ccc(CC(=O)Nc2ccc(OC(C)(C)c3ccc(Cl)c(F)c3)cc2)cc1 [Example 7, N-{4-[1-(4-Chloro-3-fluoro-phenyl)-1-methyl-ethoxy]-phenyl}-2-(4-ethanesulfonyl-phenyl)-acetamide] | – | 74.4% | 85.1%
19 | CCS(=O)(=O)c1ccc(CC(=O)Nc2ccc(OC(C)(C)c3ccc(F)cc3Cl)nc2)cc1 [Example 57, N-{6-[1-(2-Chloro-4-fluoro-phenyl)-1-methyl-ethoxy]-pyridin-3-yl}-2-(4-ethanesulfonyl-phenyl)-acetamide] | 50 to 100 nM | 78% | 91.3%
20 | CCS(=O)(=O)c1ccc(CC(=O)Nc2ccc3c(c2)nc(C(C)(C)Oc2ccc(Cl)cc2Cl)n3C)cc1 [Example 84, N-{2-[2-(2,4-Dichlorophenoxy)propan-2-yl]-1-methyl-1H-benzimidazol-5-yl}-2-[4-(ethylsulfonyl)phenyl]acetamide] | < 50 nM | 89.7% | 90.2%
21 | CCS(=O)(=O)c1ccc(CC(=O)Nc2ccc(OC3(c4ccc(C(F)(F)F)c(F)c4)CCOCC3)cc2)cc1 [Example 41, 2-(4-Ethanesulfonyl-phenyl)-N-{4-[4-(3-fluoro-4-trifluoromethyl-phenyl)-tetrahydro-pyran-4-yloxy]-phenyl}-acetamide] | > 100 nM | 78% | 87.2%
22 | CCS(=O)(=O)c1ccc(CC(=O)Nc2ccc(OC3(c4ccc(Cl)cc4F)CCC3)cc2)cc1 [Example 33, N-(4-{[1-(4-Chloro-2-fluorophenyl)cyclobutyl]oxy}phenyl)-2-[4-(ethylsulfonyl)phenyl]acetamide] | – | 76.7% | 81.8%
23 | CCS(=O)(=O)c1ccc(CC(=O)Nc2ccc(OC3(c4ccc(Cl)c(F)c4)CC3)nc2)cc1 [Example 52, N-{6-[1-(4-Chloro-3-fluoro-phenyl)-cyclopropoxy]-pyridin-3-yl}-2-(4-ethanesulfonyl-phenyl)-acetamide] | – | 63.7% | 83.8%
